From US11931424B2, “Combination MCL-1 inhibitors with anti-body drug conjugates” (Gilead Sciences, Inc., priority 2021, dated 2024)

System: panel of breast cancer cell lines
Test: Compound A with targeted agents and chemotherapies, 72-hour in vitro proliferation assays
Assay type: cell-based
[1] = BT-20 cell line, compound A × partner, 72-hour proliferation
[2] = CAL-51 cell line, compound A × partner, 72-hour proliferation
[3] = CAL-85-1 cell line, compound A × partner, 72-hour proliferation
[4] = CAL-120 cell line, compound A × partner, 72-hour proliferation
[5] = CAL-148 cell line, compound A × partner, 72-hour proliferation
[6] = CAMA-1 cell line, compound A × partner, 72-hour proliferation
[7] = DU-4475 cell line, compound A × partner, 72-hour proliferation
[8] = EVSA-T cell line, compound A × partner, 72-hour proliferation
[9] = HCC38, compound A × partner, 72-hour proliferation
[10] = HCC70, compound A × partner, 72-hour proliferation
[11] = HCC1143 cell line, compound A × partner, 72-hour proliferation
[12] = HCC1569, compound A × partner, 72-hour proliferation
[13] = HCC1806, compound A × partner, 72-hour proliferation
[14] = HCC1937, compound A × partner, 72-hour proliferation
[15] = HCC1954, compound A × partner, 72-hour proliferation
[16] = HCC2218, compound A × partner, 72-hour proliferation
[17] = HDQ-P1, compound A × partner, 72-hour proliferation
[18] = HMC-1-8, compound A × partner, 72-hour proliferation
[19] = JIMT-1, compound A × partner, 72-hour proliferation
[20] = AU565 cell line, compound A × partner, 72-hour proliferation
[21] = KPL-1, compound A × partner, 72-hour proliferation

CC1(C)CCC(CN2CCN(c3ccc(C(=O)NS(=O)(=O)c4ccc(NCC5CCOCC5)c([N+](=O)[O-])c4)c(Oc4cnc5[nH]ccc5c4)c3)CC2)=C(c2ccc(Cl)cc2)C1 [ABT-199] was tested, and the “Best CI” value (72 h) was 1.23, the “Bliss Volume” value (72 h) was −1.15 and the HSA volume (72 h) was −2.69. For the same molecule, the “Loewe Volume” value (72 h) was −0.11, the “Synergy Score” value (72 h) was 3.31 and the “Best CI” value [1] was 0.62. The “Bliss Volume” value [1] was 6.83, the HSA volume [1] was 5.47 and the “Loewe Volume” value [1] was 5.94. For the same molecule, the “Synergy Score” value [1] was 13.39, the “Best CI” value [2] was 0.58 and the “Bliss Volume” value [2] was 0.44. For the same molecule, the HSA volume [2] was −2.62, the “Loewe Volume” value [2] was 0.83 and the “Synergy Score” value [2] was 0.56. For the same molecule, the “Best CI” value [3] was 0.83, the “Bliss Volume” value [3] was −1.49 and the HSA volume [3] was −2.11. The “Loewe Volume” value [3] was −1.27, the “Synergy Score” value [3] was 1.08 and the “Best CI” value [4] was 0.85. The “Bliss Volume” value [4] was 3.85, the HSA volume [4] was −1.21 and the “Loewe Volume” value [4] was −0.16. The “Synergy Score” value [4] was 0.62, the “Best CI” value [5] was 0.47 and the “Bliss Volume” value [5] was 3.32. The HSA volume [5] was −0.66, the “Loewe Volume” value [5] was 3.11 and the “Synergy Score” value [5] was 2.74. For the same molecule, the “Best CI” value [6] was 0.38, the “Bliss Volume” value [6] was 8.30 and the HSA volume [6] was 4.83. The “Loewe Volume” value [6] was 8.10, the “Best CI” value [7] was 1.15 and the “Bliss Volume” value [7] was 10.43. For the same molecule, the HSA volume [7] was 8.46, the “Loewe Volume” value [7] was 10.37 and the “Synergy Score” value [7] was 10.64. The “Best CI” value [8] was 1.07, the “Bliss Volume” value [8] was 1.29 and the HSA volume [8] was −0.86. The “Loewe Volume” value [8] was 0.99, the “Synergy Score” value [8] was 4.67 and the “Best CI” value [9] was 0.77. The “Bliss Volume” value [9] was −3.14, the HSA volume [9] was −0.71 and the “Loewe Volume” value [9] was 0.50. For the same molecule, the “Synergy Score” value [9] was 5.65, the “Best CI” value [10] was 0.43 and the “Bliss Volume” value [10] was 15.68. For the same molecule, the HSA volume [10] was 14.46, the “Loewe Volume” value [10] was 15.44 and the “Synergy Score” value [10] was 28.95. The “Best CI” value [11] was 0.82, the “Bliss Volume” value [11] was 2.43 and the HSA volume [11] was −2.65. For the same molecule, the “Loewe Volume” value [11] was −1.50, the “Synergy Score” value [11] was 3.01 and the “Best CI” value [12] was 0.51. For the same molecule, the “Bliss Volume” value [12] was 15.86, the HSA volume [12] was 14.50 and the “Loewe Volume” value [12] was 16.04. For the same molecule, the “Synergy Score” value [12] was 14.35, the “Best CI” value [13] was 0.83 and the “Bliss Volume” value [13] was 3.80. The HSA volume [13] was 4.70, the “Loewe Volume” value [13] was 5.23 and the “Synergy Score” value [13] was 6.31. The “Best CI” value [14] was 0.22, the “Bliss Volume” value [14] was 8.42 and the HSA volume [14] was 2.68. The “Loewe Volume” value [14] was 4.59, the “Synergy Score” value [14] was 1.43 and the “Best CI” value [15] was 0.60. The “Bliss Volume” value [15] was 12.55, the HSA volume [15] was 10.72 and the “Loewe Volume” value [15] was 12.18. The “Synergy Score” value [15] was 17.16, the “Best CI” value [16] was 0.43 and the “Bliss Volume” value [16] was 7.82. The HSA volume [16] was 8.19, the “Loewe Volume” value [16] was 7.59 and the “Synergy Score” value [16] was 15.06. For the same molecule, the “Best CI” value [17] was 0.04, the “Bliss Volume” value [17] was 1.77 and the HSA volume [17] was 0.38. For the same molecule, the “Loewe Volume” value [17] was 1.74, the “Synergy Score” value [17] was 0.96 and the “Best CI” value [18] was 0.90. For the same molecule, the “Bliss Volume” value [18] was 6.70, the HSA volume [18] was 5.15 and the “Loewe Volume” value [18] was 6.08. For the same molecule, the “Synergy Score” value [18] was 9.51, the “Best CI” value [19] was 0.14 and the “Bliss Volume” value [19] was −1.41. For the same molecule, the HSA volume [19] was −2.60, the “Loewe Volume” value [19] was −1.93 and the “Synergy Score” value [19] was 0.53. For the same molecule, the “Synergy Score” value (MCF7 cells, Compound A × partner agent, 72-hour proliferation) was 1.43.

In the case of CC1(C)CCC(c2ccc(Cl)cc2)=C(CN2CCN(c3ccc(C(=O)NS(=O)(=O)c4ccc(N[C@H](CCN5CCOCC5)CSc5ccccc5)c(S(=O)(=O)C(F)(F)F)c4)cc3)CC2)C1 [ABT-263], the “Best CI” value [20] is reported as 0.61, the “Bliss Volume” value [20] is reported as 9.56 and the HSA volume [20] is reported as 3.63. For the same molecule, the “Loewe Volume” value [20] was 8.42, the “Synergy Score” value [20] was 14.69 and the “Best CI” value [1] was 0.05. The “Bliss Volume” value [1] was 36.91, the HSA volume [1] was 37.77 and the “Loewe Volume” value [1] was 37.81. The “Synergy Score” value [1] was 84.06, the “Best CI” value [2] was 0.09 and the “Bliss Volume” value [2] was 18.29. For the same molecule, the HSA volume [2] was 17.50, the “Loewe Volume” value [2] was 18.72 and the “Synergy Score” value [2] was 39.59. For the same molecule, the “Best CI” value [3] was 0.17, the “Bliss Volume” value [3] was 13.36 and the HSA volume [3] was 16.06. The “Loewe Volume” value [3] was 15.97, the “Synergy Score” value [3] was 29.64 and the “Best CI” value [4] was 0.21. The “Bliss Volume” value [4] was 15.10, the HSA volume [4] was 15.51 and the “Loewe Volume” value [4] was 16.04. For the same molecule, the “Synergy Score” value [4] was 24.96, the “Best CI” value [5] was 0.10 and the “Bliss Volume” value [5] was 28.25. For the same molecule, the HSA volume [5] was 22.50, the “Loewe Volume” value [5] was 27.96 and the “Synergy Score” value [5] was 51.82. The “Best CI” value [6] was 0.14, the “Bliss Volume” value [6] was 19.67 and the HSA volume [6] was 17.49. The “Loewe Volume” value [6] was 19.32, the “Synergy Score” value [6] was 41.66 and the “Best CI” value [7] was 0.48. For the same molecule, the “Bliss Volume” value [7] was 24.62, the HSA volume [7] was 22.37 and the “Loewe Volume” value [7] was 22.67. For the same molecule, the “Synergy Score” value [7] was 35.34, the “Best CI” value [8] was 0.36 and the “Bliss Volume” value [8] was 15.42. The HSA volume [8] was 14.19, the “Loewe Volume” value [8] was 14.63 and the “Synergy Score” value [8] was 28.16. For the same molecule, the “Best CI” value [9] was 0.13, the “Bliss Volume” value [9] was 27.10 and the “Synergy Score” value [9] was 37.11. The “Best CI” value [10] was 0.03, the “Bliss Volume” value [10] was 44.63 and the HSA volume [10] was 44.49. The “Loewe Volume” value [10] was 44.97, the “Synergy Score” value [10] was 97.06 and the “Best CI” value [11] was 0.05. The “Bliss Volume” value [11] was 27.56, the HSA volume [11] was 26.07 and the “Loewe Volume” value [11] was 27.51. For the same molecule, the “Synergy Score” value [11] was 43.54, the “Best CI” value [12] was 0.13 and the “Bliss Volume” value [12] was 27.53. The HSA volume [12] was 24.55, the “Loewe Volume” value [12] was 26.18 and the “Synergy Score” value [12] was 46.64. For the same molecule, the “Best CI” value [13] was 0.03, the “Bliss Volume” value [13] was 45.40 and the HSA volume [13] was 46.37. For the same molecule, the “Loewe Volume” value [13] was 46.26, the “Synergy Score” value [13] was 90.68 and the “Best CI” value [14] was 0.18. For the same molecule, the “Bliss Volume” value [14] was 26.87, the HSA volume [14] was 22.28 and the “Loewe Volume” value [14] was 26.31. For the same molecule, the “Synergy Score” value [14] was 43.69, the “Best CI” value [15] was 0.03 and the “Bliss Volume” value [15] was 36.37. The HSA volume [15] was 36.78, the “Loewe Volume” value [15] was 37.10 and the “Synergy Score” value [15] was 76.44. For the same molecule, the “Best CI” value [16] was 0.07, the “Bliss Volume” value [16] was 28.59 and the HSA volume [16] was 29.77. The “Loewe Volume” value [16] was 28.05, the “Synergy Score” value [16] was 59.76 and the “Best CI” value [17] was 0.09. For the same molecule, the “Bliss Volume” value [17] was 27.19, the HSA volume [17] was 27.41 and the “Loewe Volume” value [17] was 28.17. For the same molecule, the “Synergy Score” value [17] was 52.33, the “Best CI” value [18] was 0.20 and the “Bliss Volume” value [18] was 13.21. For the same molecule, the HSA volume [18] was 10.36, the “Loewe Volume” value [18] was 11.80 and the “Synergy Score” value [18] was 21.09. For the same molecule, the “Best CI” value [19] was 0.18, the “Bliss Volume” value [19] was 18.71 and the HSA volume [19] was 12.60. For the same molecule, the “Loewe Volume” value [19] was 14.35, the “Synergy Score” value [19] was 19.55 and the “Best CI” value [21] was 0.14. The “Synergy Score” value [21] was 13.50.
